Data published in PMC7586344, “Discovery of Novel pERK1/2- or β-Arrestin-Preferring 5-HT1A Receptor-Biased Agonists: Diversified Therapeutic-like versus Side Effect Profile” (Journal of Medicinal Chemistry, 2020).

Tests used:
D1 = target: T1, D1 (Homo sapiens, UniProt P21728); assay: Off-target binding screen; settings: read-out: % Inhibition of Control Specific Binding; for inhibition at 1 µM: 1000 nM
T1 construct: Eurofins Pharma Discovery Services (contract assay)

α2A = target: T2, α2A (Homo sapiens, UniProt P08913); assay: Off-target binding screen; settings: read-out: % Inhibition of Control Specific Binding; for inhibition at 0.01 µM: 10 nM; for inhibition at 0.1 µM: 100 nM; for inhibition at 1 µM: 1000 nM
T2 construct: Eurofins Pharma Discovery Services (contract screen)
T2 sequence (P08913 1-465): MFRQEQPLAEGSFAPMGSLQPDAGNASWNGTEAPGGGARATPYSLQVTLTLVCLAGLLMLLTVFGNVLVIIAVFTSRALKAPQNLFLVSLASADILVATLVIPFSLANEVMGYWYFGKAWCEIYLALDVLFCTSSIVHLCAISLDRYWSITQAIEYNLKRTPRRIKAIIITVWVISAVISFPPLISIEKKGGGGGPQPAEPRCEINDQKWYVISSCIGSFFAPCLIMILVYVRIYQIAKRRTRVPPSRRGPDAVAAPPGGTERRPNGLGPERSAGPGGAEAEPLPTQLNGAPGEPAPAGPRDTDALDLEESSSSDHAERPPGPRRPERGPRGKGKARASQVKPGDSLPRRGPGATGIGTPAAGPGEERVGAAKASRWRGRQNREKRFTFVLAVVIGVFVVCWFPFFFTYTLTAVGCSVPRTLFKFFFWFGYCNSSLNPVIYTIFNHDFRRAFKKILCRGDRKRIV

α2C = target: T3, α2C (Homo sapiens, UniProt P18825); assay: Off-target binding screen; settings: read-out: % Inhibition of Control Specific Binding; for inhibition at 0.001 µM: 1 nM; for inhibition at 0.01 µM: 10 nM; for inhibition at 0.1 µM: 100 nM; for inhibition at 1 µM: 1000 nM
T3 construct: Eurofins Pharma Discovery Services (contract screen)
T3 sequence (P18825 1-462): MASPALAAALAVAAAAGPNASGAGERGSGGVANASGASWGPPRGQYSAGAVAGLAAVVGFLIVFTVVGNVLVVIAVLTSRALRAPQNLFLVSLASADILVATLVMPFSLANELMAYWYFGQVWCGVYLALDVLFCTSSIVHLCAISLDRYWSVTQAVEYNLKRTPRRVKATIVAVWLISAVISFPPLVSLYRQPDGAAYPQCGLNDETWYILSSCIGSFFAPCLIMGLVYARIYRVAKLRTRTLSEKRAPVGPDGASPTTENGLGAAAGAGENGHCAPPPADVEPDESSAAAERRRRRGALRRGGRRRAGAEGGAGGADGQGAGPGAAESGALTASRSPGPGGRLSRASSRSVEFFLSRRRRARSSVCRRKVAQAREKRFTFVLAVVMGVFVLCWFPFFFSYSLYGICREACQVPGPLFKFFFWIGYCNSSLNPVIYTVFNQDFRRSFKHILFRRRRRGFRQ

β3 = target: T4, β3 (Homo sapiens, UniProt P13945); assay: Off-target binding screen; settings: 1000 nM, read-out: % Inhibition of Control Specific Binding
T4 construct: Eurofins Pharma Discovery Services (contract assay)
T4 sequence (P13945 whole entry): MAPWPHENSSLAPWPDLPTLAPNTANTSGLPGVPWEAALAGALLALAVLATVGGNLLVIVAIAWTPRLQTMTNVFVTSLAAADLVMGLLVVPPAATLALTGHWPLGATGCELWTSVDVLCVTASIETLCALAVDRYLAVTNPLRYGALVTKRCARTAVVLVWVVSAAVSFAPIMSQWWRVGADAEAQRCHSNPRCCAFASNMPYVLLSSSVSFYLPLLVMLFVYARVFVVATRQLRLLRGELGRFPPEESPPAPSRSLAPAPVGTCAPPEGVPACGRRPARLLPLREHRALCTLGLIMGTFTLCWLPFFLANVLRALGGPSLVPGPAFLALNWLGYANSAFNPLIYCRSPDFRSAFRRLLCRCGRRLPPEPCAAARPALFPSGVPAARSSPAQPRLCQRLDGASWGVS

5-HT7 = target: T5, 5-HT7 (Homo sapiens, UniProt P34969); assay: Off-target binding screen; settings: read-out: % Inhibition of Control Specific Binding; for inhibition at 1 µM: 1000 nM
T5 construct: Eurofins Pharma Discovery Services (contract screen)
T5 sequence (P34969 whole entry, species assumed): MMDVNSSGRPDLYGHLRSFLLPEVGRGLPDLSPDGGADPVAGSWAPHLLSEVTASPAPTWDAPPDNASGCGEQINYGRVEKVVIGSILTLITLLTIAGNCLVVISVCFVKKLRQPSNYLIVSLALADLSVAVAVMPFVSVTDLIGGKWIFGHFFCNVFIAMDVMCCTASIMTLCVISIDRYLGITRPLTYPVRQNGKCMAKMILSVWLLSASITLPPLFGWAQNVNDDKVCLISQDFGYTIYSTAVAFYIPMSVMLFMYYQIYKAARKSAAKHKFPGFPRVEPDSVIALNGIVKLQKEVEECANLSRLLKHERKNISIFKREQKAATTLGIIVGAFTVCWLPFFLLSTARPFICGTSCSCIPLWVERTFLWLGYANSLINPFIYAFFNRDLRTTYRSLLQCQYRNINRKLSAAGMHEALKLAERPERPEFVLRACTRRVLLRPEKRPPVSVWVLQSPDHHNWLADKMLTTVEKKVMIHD

D5 = target: T6, D5 (Homo sapiens, UniProt P21918); assay: Off-target binding screen; settings: read-out: % Inhibition of Control Specific Binding; for inhibition at 1 µM: 1000 nM
T6 construct: Eurofins Pharma Discovery Services (contract assay)
T6 sequence (P21918 whole entry): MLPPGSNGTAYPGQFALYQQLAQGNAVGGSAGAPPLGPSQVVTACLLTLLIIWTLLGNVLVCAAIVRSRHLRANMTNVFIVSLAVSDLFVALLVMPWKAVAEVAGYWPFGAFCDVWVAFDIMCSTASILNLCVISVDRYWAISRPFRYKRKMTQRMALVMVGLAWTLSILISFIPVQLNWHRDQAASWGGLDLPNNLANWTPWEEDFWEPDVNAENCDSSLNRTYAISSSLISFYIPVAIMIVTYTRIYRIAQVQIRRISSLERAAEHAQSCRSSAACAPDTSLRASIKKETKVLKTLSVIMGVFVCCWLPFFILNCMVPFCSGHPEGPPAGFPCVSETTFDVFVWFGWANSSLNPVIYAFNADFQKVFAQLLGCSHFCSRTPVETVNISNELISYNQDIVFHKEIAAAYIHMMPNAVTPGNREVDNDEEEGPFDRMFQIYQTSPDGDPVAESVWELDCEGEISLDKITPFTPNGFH

α2B = target: T7, α2B (Homo sapiens, UniProt P18089); assay: Off-target binding screen; settings: read-out: % Inhibition of Control Specific Binding; for inhibition at 0.01 µM: 10 nM; for inhibition at 0.1 µM: 100 nM; for inhibition at 1 µM: 1000 nM
T7 construct: Eurofins Pharma Discovery Services (contract screen)
T7 sequence (P18089 1-450): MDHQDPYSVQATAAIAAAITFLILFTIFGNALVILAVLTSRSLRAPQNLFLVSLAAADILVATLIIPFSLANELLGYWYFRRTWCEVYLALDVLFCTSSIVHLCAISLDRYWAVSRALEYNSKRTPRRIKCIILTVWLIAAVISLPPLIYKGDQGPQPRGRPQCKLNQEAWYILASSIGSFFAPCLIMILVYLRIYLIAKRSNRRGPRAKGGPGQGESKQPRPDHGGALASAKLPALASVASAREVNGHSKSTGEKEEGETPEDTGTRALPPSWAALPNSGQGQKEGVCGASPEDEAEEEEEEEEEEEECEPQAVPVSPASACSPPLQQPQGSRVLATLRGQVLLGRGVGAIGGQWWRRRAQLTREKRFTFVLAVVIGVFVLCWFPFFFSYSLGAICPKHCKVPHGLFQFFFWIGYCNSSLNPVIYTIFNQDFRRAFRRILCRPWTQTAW

σ1 = target: T8, σ1 (Homo sapiens, UniProt Q99720); assay: Off-target binding screen; settings: read-out: % Inhibition of Control Specific Binding; for inhibition at 0.01 µM: 10 nM; for inhibition at 0.1 µM: 100 nM; for inhibition at 1 µM: 1000 nM
T8 construct: Eurofins Pharma Discovery Services (contract assay)
T8 sequence (Q99720 whole entry): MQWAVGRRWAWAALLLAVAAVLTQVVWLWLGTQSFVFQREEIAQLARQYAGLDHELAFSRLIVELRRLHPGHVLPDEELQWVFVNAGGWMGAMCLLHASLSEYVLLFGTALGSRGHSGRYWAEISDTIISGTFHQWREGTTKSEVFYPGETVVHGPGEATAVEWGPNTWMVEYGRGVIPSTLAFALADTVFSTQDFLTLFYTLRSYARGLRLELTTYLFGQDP

α1B = target: T9, α1B (Homo sapiens, UniProt P35368); assay: Off-target binding screen; settings: read-out: % Inhibition of Control Specific Binding; for inhibition at 0.01 µM: 10 nM; for inhibition at 0.1 µM: 100 nM; for inhibition at 1 µM: 1000 nM
T9 construct: Eurofins Pharma Discovery Services (contract screen)
T9 sequence (P35368 1-520): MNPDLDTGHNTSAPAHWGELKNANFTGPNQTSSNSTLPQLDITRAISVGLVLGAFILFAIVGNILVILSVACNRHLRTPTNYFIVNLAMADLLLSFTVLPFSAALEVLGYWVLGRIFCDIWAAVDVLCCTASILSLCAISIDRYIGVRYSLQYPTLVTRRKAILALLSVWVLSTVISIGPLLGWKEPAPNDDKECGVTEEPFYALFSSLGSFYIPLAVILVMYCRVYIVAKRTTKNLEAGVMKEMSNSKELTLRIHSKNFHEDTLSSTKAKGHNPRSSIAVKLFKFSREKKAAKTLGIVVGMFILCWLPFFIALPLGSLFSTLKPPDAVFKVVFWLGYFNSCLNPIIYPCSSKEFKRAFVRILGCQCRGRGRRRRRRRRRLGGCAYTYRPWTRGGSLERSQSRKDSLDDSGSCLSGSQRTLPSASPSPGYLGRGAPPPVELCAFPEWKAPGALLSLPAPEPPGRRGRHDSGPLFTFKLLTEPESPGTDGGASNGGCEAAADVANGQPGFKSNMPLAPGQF

σ2 = target: T10, σ2 (Homo sapiens, UniProt Q5BJF2); assay: Off-target binding screen; settings: read-out: % Inhibition of Control Specific Binding; for inhibition at 0.01 µM: 10 nM; for inhibition at 0.1 µM: 100 nM; for inhibition at 1 µM: 1000 nM
T10 construct: Eurofins Pharma Discovery Services (contract assay)
T10 sequence (Q5BJF2 whole entry): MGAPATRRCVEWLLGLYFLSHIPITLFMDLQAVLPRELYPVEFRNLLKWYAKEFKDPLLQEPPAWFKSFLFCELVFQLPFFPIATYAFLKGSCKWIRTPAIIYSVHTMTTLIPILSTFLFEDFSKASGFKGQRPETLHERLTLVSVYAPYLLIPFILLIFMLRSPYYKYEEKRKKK

β2 = target: T11, β2 (Homo sapiens, UniProt P07550); assay: Off-target binding screen; settings: 1000 nM, read-out: % Inhibition of Control Specific Binding
T11 construct: Eurofins Pharma Discovery Services (contract screen)
T11 sequence (P07550 whole entry): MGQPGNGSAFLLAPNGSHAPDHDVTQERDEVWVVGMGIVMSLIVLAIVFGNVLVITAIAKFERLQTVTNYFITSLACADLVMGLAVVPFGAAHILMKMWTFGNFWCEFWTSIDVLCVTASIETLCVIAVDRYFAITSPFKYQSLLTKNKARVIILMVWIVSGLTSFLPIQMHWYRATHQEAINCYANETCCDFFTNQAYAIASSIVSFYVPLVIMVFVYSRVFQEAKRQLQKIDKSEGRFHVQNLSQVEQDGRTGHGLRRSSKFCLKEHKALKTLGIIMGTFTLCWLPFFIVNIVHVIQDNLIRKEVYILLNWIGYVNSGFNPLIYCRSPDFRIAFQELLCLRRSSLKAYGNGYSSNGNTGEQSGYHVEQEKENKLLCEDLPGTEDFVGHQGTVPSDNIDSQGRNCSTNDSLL

Intrinsic clearance = assay type: in vitro ADME; settings: rat, rat liver microsomes, pH 7.4
5-HT1B = target: T12, 5-HT1B (Homo sapiens, UniProt P28222); assay: Off-target binding screen; settings: read-out: % Inhibition of Control Specific Binding; for inhibition at 1 µM: 1000 nM
T12 construct: Eurofins Pharma Discovery Services (contract screen)
T12 sequence (P28222 whole entry, species assumed): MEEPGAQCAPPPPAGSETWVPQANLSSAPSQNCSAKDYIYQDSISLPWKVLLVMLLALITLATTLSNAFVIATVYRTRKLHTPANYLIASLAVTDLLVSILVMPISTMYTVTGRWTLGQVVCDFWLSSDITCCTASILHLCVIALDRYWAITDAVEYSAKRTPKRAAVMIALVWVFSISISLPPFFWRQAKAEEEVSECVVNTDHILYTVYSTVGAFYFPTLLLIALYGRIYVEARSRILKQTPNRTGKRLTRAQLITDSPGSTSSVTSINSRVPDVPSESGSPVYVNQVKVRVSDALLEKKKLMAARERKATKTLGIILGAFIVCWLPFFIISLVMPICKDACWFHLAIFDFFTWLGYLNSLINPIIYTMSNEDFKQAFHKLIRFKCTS

5-HT5A = target: T13, 5-HT5A (Homo sapiens, UniProt P47898); assay: Off-target binding screen; settings: read-out: % Inhibition of Control Specific Binding; for inhibition at 1 µM: 1000 nM
T13 construct: Eurofins Pharma Discovery Services (contract screen)
T13 sequence (P47898 whole entry, species assumed): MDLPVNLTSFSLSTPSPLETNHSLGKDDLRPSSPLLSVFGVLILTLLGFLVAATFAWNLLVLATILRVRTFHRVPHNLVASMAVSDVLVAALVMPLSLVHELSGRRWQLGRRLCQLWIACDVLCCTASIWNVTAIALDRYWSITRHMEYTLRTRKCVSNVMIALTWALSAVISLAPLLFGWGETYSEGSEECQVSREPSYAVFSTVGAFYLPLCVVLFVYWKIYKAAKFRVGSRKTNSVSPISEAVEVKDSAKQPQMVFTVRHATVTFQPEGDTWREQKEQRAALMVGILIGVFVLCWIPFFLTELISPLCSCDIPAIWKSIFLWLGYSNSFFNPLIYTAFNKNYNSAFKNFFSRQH

T1 sequence (P21728 whole entry): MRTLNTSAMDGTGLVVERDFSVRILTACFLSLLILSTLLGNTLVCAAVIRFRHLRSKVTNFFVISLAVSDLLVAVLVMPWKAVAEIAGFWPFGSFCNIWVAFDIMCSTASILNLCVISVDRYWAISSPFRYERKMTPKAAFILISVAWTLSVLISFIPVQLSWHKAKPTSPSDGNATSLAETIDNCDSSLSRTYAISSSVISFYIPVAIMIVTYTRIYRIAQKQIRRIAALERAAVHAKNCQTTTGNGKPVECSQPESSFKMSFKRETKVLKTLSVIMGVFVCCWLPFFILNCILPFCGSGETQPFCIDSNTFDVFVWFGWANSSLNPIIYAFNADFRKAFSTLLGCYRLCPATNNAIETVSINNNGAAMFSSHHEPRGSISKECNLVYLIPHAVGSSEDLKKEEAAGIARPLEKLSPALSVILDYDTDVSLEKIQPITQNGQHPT

Row | Structure (SMILES) | inhibition at 1 µM (D1) [%] | inhibition at 0.01 µM (α2A) [%] | inhibition at 0.1 µM (α2A) [%] | inhibition at 1 µM (α2A) [%] | inhibition at 0.001 µM (α2C) [%] | inhibition at 0.01 µM (α2C) [%] | inhibition at 0.1 µM (α2C) [%] | inhibition at 1 µM (β3) [%] | inhibition at 1 µM (D5) [%] | inhibition at 1 µM (α2B) [%] | inhibition at 0.01 µM (σ1) [%] | inhibition at 0.1 µM (σ1) [%] | inhibition at 1 µM (σ1) [%] | inhibition at 0.01 µM (σ2) [%] | inhibition at 0.1 µM (σ2) [%] | inhibition at 1 µM (σ2) [%] | inhibition at 1 µM (β2) [%] | CLint scaled at […], 50 µM (Intrinsic clearance) [mL/min/kg] | inhibition at 1 µM (5-HT1B) [%] | inhibition at 1 µM (5-HT5A) [%] | other results
1 | O=C(c1ccc(F)c(Cl)c1)N1CCC(F)(CNCCOc2cccc3[nH]ccc23)CC1 [Compound 56, (4-(((2-((1H-Indol-4-yl)oxy)ethyl)amino)methyl)-4-fluoropiperidin-1-yl)(3-chloro-4-fluorophenyl)methanone] | 89 | -7 | 33 | 81 | 3 | 18 | 74 | 1 | 91 | 75 | 1 | 22 | 86 | -1 | 31 | 63 | 9 | 9.6 | 63 | 53 | inhibition at 0.01 µM (D1; 10 nM): 12%; inhibition at 0.1 µM (D1; 100 nM): 52%; inhibition at 0.001 µM (5-HT7; 1 nM): 5%; inhibition at 0.01 µM (5-HT7; 10 nM): 32%; inhibition at 0.1 µM (5-HT7; 100 nM): 68%; inhibition at 0.001 µM (D5; 1 nM): -10%; inhibition at 0.01 µM (D5; 10 nM): -3%; inhibition at 0.1 µM (D5; 100 nM): 53%; inhibition at 0.01 µM (α2B): -8%; inhibition at 0.1 µM (α2B): 29%; inhibition at 0.01 µM (α1B): -6%; inhibition at 0.1 µM (α1B): 11%; inhibition at 1 µM (α1B): 69%; inhibition at 0.01 µM (5-HT1B; 10 nM): 1%; inhibition at 0.1 µM (5-HT1B; 100 nM): 17%; inhibition at 0.01 µM (5-HT5A; 10 nM): -18%; inhibition at 0.1 µM (5-HT5A; 100 nM): 12%
2 | CNc1ccccc1OCCNCC1(F)CCN(C(=O)c2ccc(F)c(Cl)c2)CC1 [Compound 44, (3-Chloro-4-fluorophenyl)(4-fluoro-4-(((2-(2-(methylamino)phenoxy)ethyl)amino)methyl)piperidin-1-yl)methanone] | 36 | – | – | 10 | – | – | – | -7 | 29 | -2 | 11 | 31 | 84 | 2 | 10 | 52 | -3 | 48.8 | 0 | 2 | inhibition at 1 µM (α2C): 32%; inhibition at 1 µM (5-HT7): 11%; inhibition at 0.01 µM (α1B): -3%; inhibition at 0.1 µM (α1B): -6%
3 | O=C(c1ccc(F)c(Cl)c1)N1CCC(F)(CNCCOc2ccccc2)CC1 [Compound 3] | 30 | -5 | 21 | 66 | 1 | 18 | 66 | -2 | 40 | 85 | 1 | 15 | 88 | 11 | 33 | 82 | 2 | 41.7 | -7 | -1 | inhibition at 1 µM (α2C): 92%; inhibition at 1 µM (5-HT7): 30%; inhibition at 0.01 µM (α2B): -2%; inhibition at 0.1 µM (α2B): 45%; inhibition at 1 µM (α1B): 32%
